Experiments:
[1] = molecular target: T1, ROCK2 (Homo sapiens (Human), UniProt O75116); assay: ROCK2 ADP-Glo kinase enzyme inhibition assay; assay type: biochemical; conditions: Exp #3; read-out: ROCK2 IC50(Exp #3)
Method: We measured ROCK and PKA kinase enzyme activity inhibition by compounds using commercially available ROCK1 (Promega Corporation, cat #V9581), ROCK2 (Promega, cat #V4045), and PKA kinase (Promega, cat #V4247) ADP-Glo™ assay kits. ADP-Glo™ Kinase Assay is a luminescent ADP detection assay that provides a homogeneous method to measure kinase activity by quantifying the amount of ADP produced during a kinase reaction. The assay is performed in two steps. First, after the kinase reaction, an equal volume of ADP-Glo™ Reagent is added to terminate the kinase reaction and deplete the remaining ATP. Second, the Kinase Detection Reagent is added to simultaneously convert ADP to ATP and allow the newly synthesized ATP to be measured using a luciferase/luciferin reaction. The light generated is measured using a luminometer. A complete protocol is included with the kits and is also available at the Promega website. The assay is briefly described below. • 1. Diluted enzyme, substrate, ATP, and compounds (inhibitors) in Kinase Buffer (40 mM Tris, 7.5, 20 mM MgCl2, 0.1 mg/ml BSA, 50 μM DTT). • 2. Added 1 μl of inhibitor, 2 μl of enzyme and 2 μl of substrate/ATP mix to the wells of 384-well low volume nonbinding assay plate A series of three-fold dilution of inhibitor was prepared and assayed for each inhibitor. • 3. Incubated at room temperature for 60 minutes. • 4. Added 5 μl of ADP-Glo™ Reagent. • 5. Incubated at room temperature for 60 minutes. • 6. Added 10 μl of Kinase Detection Reagent • 7. Incubated at room temperature for 30 minutes.
Recorded luminescence (Integration time 1 second) using a plate-based luminometer.
Calculated Percent Enzyme Activity: First subtract the signal of the negative control (no enzyme and no inhibitor) from each sample's signal. Then use the mean relative light units (RLU) values for the 0% kinase activity (neither inhibitor nor enzyme) and the 100% kinase activity (no compound) to calculate the other percent enzyme activities remaining in the presence of the different dilutions of inhibitor.
Inhibitor stock solutions of 10 mM are made in DMSO and stored at −20° C. Dilutions were made in assay buffer immediately before use.

[2] = molecular target: AKT1 (Homo sapiens (Human), UniProt P31749); assay: AGC Kinase Selectivity Profiling (ADP-Glo); assay type: biochemical; conditions: 1 μM compound; AGC Panel; read-out: Percent enzyme activity inhibition, AKT1
AKT1, sequence (P31749 whole entry): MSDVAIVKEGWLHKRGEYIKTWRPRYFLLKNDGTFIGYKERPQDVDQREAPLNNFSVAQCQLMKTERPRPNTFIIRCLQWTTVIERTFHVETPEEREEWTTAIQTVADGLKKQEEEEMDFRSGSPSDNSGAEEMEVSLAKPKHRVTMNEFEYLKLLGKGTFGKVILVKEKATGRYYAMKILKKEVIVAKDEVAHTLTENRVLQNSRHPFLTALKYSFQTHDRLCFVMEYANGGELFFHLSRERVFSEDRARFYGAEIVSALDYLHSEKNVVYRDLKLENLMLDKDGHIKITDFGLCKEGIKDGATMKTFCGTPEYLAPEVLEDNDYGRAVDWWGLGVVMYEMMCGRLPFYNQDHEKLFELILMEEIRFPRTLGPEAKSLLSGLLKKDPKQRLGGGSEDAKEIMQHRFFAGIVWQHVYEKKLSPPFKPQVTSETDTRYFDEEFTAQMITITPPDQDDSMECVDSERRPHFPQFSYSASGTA
Description: ROCK1 (also called ROCK I, ROKβ, Rho-kinase β, or p160ROCK) and ROCK2 ((also known as ROCK II, ROKα, or Rho kinase) belong to AGC family of serine/threonine kinases. The group of AGC kinases consists of 63 evolutionarily related serine/threonine protein kinases comprising PDK1, PKB/Akt, SGK, PKC, PRK/PKN, MSK, RSK, S6K, PKA, PKG, DMPK, MRCK, ROCK, NDR, LATS, CRIK, MAST, GRK, Sgk494, and YANK, while two other families, Aurora and PLK, are the most closely related to the group (Leroux et al., AGC kinases, mechanisms of regulation and innovative drug development, Semin Cancer Biol. 2018 February; 48:1-17).

[3] = molecular target: T1, ROCK2; assay: Stability in varied buffers and temperatures, measured by ROCK2 inhibition; assay type: physicochemical
Method: Stability in Varied Buffers and Temperatures. […] (room temperature), 37° C., 4° C., and −20° C. in water, 150 mM NaCl, pH 5 and 6 buffers, or buffers containing 150 mM NaCl. No visible precipitates were observed after storage.

[4] = Solubility Assay #3, qualitative solubility in borate and citrate buffers; assay type: physicochemical; conditions: borate and citrate buffers at a series of pH values
[5] = tested on: New Zealand White rabbits; assay: Phenol-induced chronic model of glaucoma, IOP; assay type: in vivo, rabbit
Description: For these efficacy studies methods were followed as described in (Jacob et al, A promising drug candidate for the treatment of glaucoma based on a P2Y6-receptor agonist, Purinergic Signal. 2018 September; 14 (3): 271-284). In all studies, male New Zealand White rabbits were acclimatized for one week before the study. Animals were given food and water ad libitum. Body weights of rabbits ranged from 2 to 3 kg. Animals were trained for the IOP measurement procedure during the acclimation period in order to reduce stress and obtaining more accurate measurements during the study. IOP measurements were taken using the Icare® TONOVET Plus tonometer. […] The technique of use of the […] tonometer in rabbits was described previously (Gloe et al, Validation of the Icare® TONOVET Plus Rebound Tonometer in Normal Rabbit Eyes, Exp Eye Res. 2019 August; 185:107698). IOP readings are obtained only when the tonometer is held an appropriate distance and in the correct plane relative to the ocular surface. Green light appears when the orientation is correct, thereby minimizing operator errors. […] IOP was measured daily after phenol injection and IOP doubled in 8 days after phenol injection. […] IOP readings were taken on mornings of days 8 to 12 before compound application and 0.5 and 1 hour after morning application. […]

[6] = tested on: New Zealand White rabbits; conditions: 0.1 ml, 20 mg/ml in saline
Description: The right eye that was not treated served as the control. […] The eyes of initial and confirmatory test animals were examined with slit lamp for ocular lesions. […] The animals were also observed for clinical signs of toxicity, morbidity and mortality.

[7] = molecular target: T1, ROCK2; assay: Stability in varied buffers and temperatures, measured by ROCK2 inhibition; assay type: physicochemical; remark: listed apart in the source
[8] = tested on: HEK293 cells; assay: CellTiter-Glo Luminescent Cell Viability Assay; conditions: HEK293 cells, 25, 2.5, or 0.25 μM, two days
Method: We used CellTiter-Glo® Luminescent Cell Viability Assay (Promega, cat #G7573) to determine the number of viable cells in culture based on quantitation of the ATP present, which signals the presence of metabolically active cells. • 1. Prepared HEK293 suspension culture cells (ThermoFisher, cat #A14635) and added 50 μl cells in media (12,500 cells) to each well of a white, opaque-walled 96-well plate in triplicate. • 2. […] Incubated at 37° C. and 5% CO2 for two days. • 4. Added 100 μl of CellTiter-Glo® Reagent to each well and mix contents for 2 minutes on an orbital shaker to induce cell lysis. • 5. Recorded luminescence using a plate luminometer.

T1 sequence (O75116 whole entry): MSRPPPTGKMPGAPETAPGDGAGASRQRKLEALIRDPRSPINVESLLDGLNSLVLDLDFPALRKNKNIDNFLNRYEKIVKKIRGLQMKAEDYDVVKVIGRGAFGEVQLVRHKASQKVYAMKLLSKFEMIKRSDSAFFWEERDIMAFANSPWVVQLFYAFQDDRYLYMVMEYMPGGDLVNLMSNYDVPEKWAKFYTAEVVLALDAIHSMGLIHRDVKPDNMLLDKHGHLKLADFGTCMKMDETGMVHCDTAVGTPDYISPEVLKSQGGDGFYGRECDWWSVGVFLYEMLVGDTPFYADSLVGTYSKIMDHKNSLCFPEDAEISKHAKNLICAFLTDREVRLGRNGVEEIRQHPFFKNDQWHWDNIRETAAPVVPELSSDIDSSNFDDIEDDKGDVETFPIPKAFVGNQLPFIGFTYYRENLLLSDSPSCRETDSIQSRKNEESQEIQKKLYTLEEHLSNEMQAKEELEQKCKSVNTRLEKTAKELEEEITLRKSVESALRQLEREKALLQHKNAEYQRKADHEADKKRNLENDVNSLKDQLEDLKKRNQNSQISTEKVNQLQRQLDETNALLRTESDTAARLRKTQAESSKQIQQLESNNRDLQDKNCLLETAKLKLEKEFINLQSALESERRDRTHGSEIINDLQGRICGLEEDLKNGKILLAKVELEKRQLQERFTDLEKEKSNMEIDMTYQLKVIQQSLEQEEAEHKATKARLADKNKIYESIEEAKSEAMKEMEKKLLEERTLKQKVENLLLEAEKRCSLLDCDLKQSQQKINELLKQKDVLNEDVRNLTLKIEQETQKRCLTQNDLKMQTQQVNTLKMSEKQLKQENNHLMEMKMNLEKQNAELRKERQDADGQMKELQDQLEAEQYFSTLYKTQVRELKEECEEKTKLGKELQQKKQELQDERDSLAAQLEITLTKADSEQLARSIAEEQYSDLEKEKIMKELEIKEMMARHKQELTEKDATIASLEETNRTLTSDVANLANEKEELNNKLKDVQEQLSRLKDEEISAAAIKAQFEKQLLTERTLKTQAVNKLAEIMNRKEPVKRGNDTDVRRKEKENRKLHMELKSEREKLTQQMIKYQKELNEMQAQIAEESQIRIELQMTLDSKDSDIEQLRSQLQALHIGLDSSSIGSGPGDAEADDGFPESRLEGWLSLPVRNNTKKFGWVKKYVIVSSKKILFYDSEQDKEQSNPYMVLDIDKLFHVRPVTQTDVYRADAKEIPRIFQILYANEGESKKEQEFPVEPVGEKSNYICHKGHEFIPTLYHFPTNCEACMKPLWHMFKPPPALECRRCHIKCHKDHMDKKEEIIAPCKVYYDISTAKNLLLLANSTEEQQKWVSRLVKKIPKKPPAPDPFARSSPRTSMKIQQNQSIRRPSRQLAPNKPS

Cl.Cl.NCC(C(=O)Nc1ccc2cnccc2c1)c1ccc(B(O)O)cc1 (stereo not drawn) [Compound 10•2HCl]
IC50 [1]: 28 nM | inhibition at 1 µM [2]: 52% | % ROCK2 inhibition at 20 nM ([3]; 25 mM Borate pH 5 (0.5 mg/ml), 15 days at 23° C.): 31% | % ROCK2 inhibition at 20 nM ([3]; 25 mM Borate, pH 5 (0.5 mg/ml), 15 days at −20° C.): 32% | % ROCK2 inhibition at 20 nM ([3]; 25 mM Borate, pH 5, 150 mM NaCl (0.5 mg/ml), 15 days at 23° C.): 29% | % ROCK2 inhibition at 20 nM ([3]; 150 mM NaCl (0.5 mg/ml), 0 days at 23° C.): 35% | % ROCK2 inhibition at 20 nM ([3]; 150 mM NaCl (0.5 mg/ml), 15 days at 23° C.): 35% | % ROCK2 inhibition at 20 nM ([3]; 150 mM NaCl (2 mg/ml), 120 days at 4° C.): 31% | % ROCK2 inhibition at 20 nM ([3]; 150 mM NaCl (2 mg/ml), 120 days at 37° C.): 35% | Stability in solution ([3]; 150 mM NaCl, 37° C. and 4° C.): stable for 4 months | % ROCK2 inhibition at 20 nM ([3]; Water (0.5 mg/ml), 15 days at 23° C.): 34% | % ROCK2 inhibition at 20 nM ([3]; Water (0.5 mg/ml), 15 days at −20° C.): 33% | pH at which precipitation occurs [4]: ~8.5 | Effect on IOP after first application ([5]; 1 mg/ml (2.34 mM) in saline, day 8 after phenol injection): decrease of IOP to normal levels within 1 hour after application | Effect of subsequent twice daily application on IOP ([5]; 1 mg/ml twice daily, days 8 to 12): maintained normal IOP | clinical signs of toxicity, morbidity and mortality [6]: No treatment-related adverse effects were noticed | % ROCK2 inhibition at 20 nM ([7]; 25 mM Borate pH 7 (0.5 mg/ml), 15 days at 23° C.): 36% | % ROCK2 inhibition at 20 nM ([7]; 25 mM Borate, pH 7 (0.5 mg/ml), 15 days at −20° C.): 34% | % ROCK2 inhibition at 20 nM ([7]; 25 mM Borate, pH 7, 150 mM NaCl (0.5 mg/ml), 15 days at 23° C.): 32% | Stability in solution ([7]; pH 5 and 7 buffers, room temperature): stable in pH 5 and 7 buffers at room temperature for 15 days | Cell viability (ATP amount) [8]: same amount of ATP as cells without inhibitor

— patent US12479866B2, “Boron-containing rho kinase inhibitors” (Percipiad, Inc., priority 2019, dated 2025)
